The test system of series [1] is Francisella tularensis subsp. novicida Utah 112. Briefly: microbe, parasite or virus in culture. To be noted: for EC50: read-out: EC50, growth inhibition. It is filed as cell-based.
Series [2] has as its system FtIspD. It is filed as biochemical, Francisella tularensis.
Series [3] concerns FtIspD. Type of series: biochemical, Francisella tularensis. The source holds these as a separate data set.
For another series, the target named is Y. pestis IspC (YpIspC) (Yersinia pestis, UniProt Q8ZH62). Description: biochemical. Particulars: for % Residual Activity: 100 µM; for remaining activity at 100 µM: read-out: % Residual Activity.
Sequence of Y. pestis IspC (YpIspC) (Q8ZH62 whole entry, looked up): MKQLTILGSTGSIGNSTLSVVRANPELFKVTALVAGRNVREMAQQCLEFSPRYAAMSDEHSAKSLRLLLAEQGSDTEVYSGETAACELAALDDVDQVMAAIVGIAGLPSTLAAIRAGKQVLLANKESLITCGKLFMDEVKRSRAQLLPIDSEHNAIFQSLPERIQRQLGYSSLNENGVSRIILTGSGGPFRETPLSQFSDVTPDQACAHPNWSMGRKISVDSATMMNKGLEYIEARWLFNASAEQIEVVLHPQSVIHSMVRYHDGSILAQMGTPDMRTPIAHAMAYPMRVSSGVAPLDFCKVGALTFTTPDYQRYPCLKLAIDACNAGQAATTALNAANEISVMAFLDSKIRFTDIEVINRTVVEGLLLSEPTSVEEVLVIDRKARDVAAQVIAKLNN
For series [4] the following is noted: literature search; cited from earlier work.
For series [5], the system named is Yersinia pestis subsp. A1122. Description: microbe, parasite or virus in culture. Type of series: cell-based.
The subject of series [6] is Francisella tularensis subsp. novicida Utah 112. Particulars: read-out: EC50, growth inhibition; cited from earlier work.
For series [7], the system named is Yersinia pestis subsp. A1122. Particulars: read-out: EC50, growth inhibition; cited from earlier work.
For series [8], the system named is F. tularensis IspD (FtIspD). Type of series: biochemical, Francisella tularensis.
A further series addresses T1, E.coli IspD (EcIspD) (Escherichia coli, UniProt Q46893).
T1 sequence (Q46893 1-236): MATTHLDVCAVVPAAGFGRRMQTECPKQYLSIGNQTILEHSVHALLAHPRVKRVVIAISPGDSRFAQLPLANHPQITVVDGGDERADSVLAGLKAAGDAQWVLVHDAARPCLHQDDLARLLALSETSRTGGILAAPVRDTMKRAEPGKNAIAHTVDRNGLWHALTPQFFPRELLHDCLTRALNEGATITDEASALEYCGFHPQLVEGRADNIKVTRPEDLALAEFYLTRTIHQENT
Description: Secondary screen, cuvette-based assay with EcIspD. It is filed as biochemical.

The next series relates to CYP34A. To be noted: direct competitive inhibitor; cited from earlier work.
The test system of the next series is JNK. Particulars: cited from earlier work.
The next series deals with PI3K. To be noted: competitive inhibitor; cited from earlier work.
Series [9] has as its target T2, YpIspC (Yersinia pestis, UniProt Q8ZH62). It is filed as biochemical.
Series [10] deals with T2, YpIspC. It is filed as biochemical. The source holds these as a separate data set.
[11] abbreviates: Yersinia pestis, SUBSP.A1122, read-out: EC50, growth inhibition.

The structures appear in SMILES notation. Where two headings read alike, the source gives them in different places.

T2 sequence (Q8ZH62 whole entry, looked up): as the sequence (Q8ZH62 whole entry, looked up) above

`NC(Cc1cc(O)c(O)cc1O)C(=O)O` (racemic) [6-hydroxy-DL-DOPA]: the “antibacterial activity in the quaternary screen” value (from here on “antibacterial activity”) in [1] was “failed to show significant antimicrobial activity”. In the series on FtIspD [2], the “mode of inhibition with respect to CTP” value is “competitive” and the “mode of inhibition with respect to MEP” value is recorded as “noncompetitive”. In addition, the “attenuation of inhibition in the presence of detergent” value in the series on FtIspD [3] was “did not attenuate inhibition”.

On to `O=C(O)C1=CC(=C(c2ccc(O)c(C(=O)O)c2)c2ccc(O)c(C(=O)O)c2)C=CC1=O` [Aurintricarboxylic acid], for which, in series [1], the “antibacterial activity” value is listed as “failed to show significant antimicrobial activity”.

For `O.Oc1cc(O)c2c(c1)O[C@H](c1ccc(O)c(O)c1)[C@@H](O)C2` [Catechin], the “% Residual Activity” value at Y. pestis IspC (YpIspC) came to 96.65%.

A word on the EC50: it is the concentration that produces a half-maximal response. Take `Cc1cc(N)c2ccccc2[n+]1CCCCCCCCCC[n+]1c(C)cc(N)c2ccccc21.O.[Cl-].[Cl-]` [Dequalinium chloride, 1,1′-Decamethylenebis(4-aminoquinaldinium) dichloride hydrate]: the “forming aggregates in solution” value in [4] is reported as “forming aggregates in solution”. Also, the EC50 in series [5] (setting [11]) was > 100 µM. Besides, the “hit identification in the primary screen with YpIspC” value at Y. pestis IspC (YpIspC) is given as “identified as inhibitors of IspC”. Besides, in [1], the “antibacterial activity” value is “significantly inhibit bacterial growth”.

`CC(=O)N(O)CCCP(=O)(O)O` [FR900098]: the EC50 was 23 µM in series [6] and 29 µM in series [7].

As for `O=C1Nc2ccc(I)cc2C1=Cc1cc(Br)c(O)c(Br)c1` [GW5074, 3-(3,5-Dibromo-4-hydroxybenzylidine-5-iodo-1,3-dihydro-indol-2-one)], the “hit identification in the primary screen with FtIspD” value in series [8] was “identified as inhibitors of FtIspD”. Also, the “residual activity of EcIspD in the secondary screen” value on E.coli IspD (EcIspD) (secondary screen, 100 μM) was 47%. Moreover, in [1], the “antibacterial activity” value is recorded as “significantly inhibit bacterial growth”.

For `COc1cc(/C=C(\C#N)C(=O)c2ccc(O)c(O)c2)cc(I)c1O` [I-OMe-Tyrphostin AG 538], the “antibacterial activity” value in series [1] is “failed to show significant antimicrobial activity”.

On to `O=C(Nc1cccc(C(=O)Nc2ccc(S(=O)(=O)O)c3cc(S(=O)(=O)O)cc(S(=O)(=O)O)c23)c1)Nc1cccc(C(=O)Nc2ccc(S(=O)(=O)O)c3cc(S(=O)(=O)O)cc(S(=O)(=O)O)c23)c1` [NF023], for which the “antibacterial activity” value in series [1] is given as “failed to show significant antimicrobial activity”.

`CCCc1c(-c2ccc(O)cc2)nn(-c2ccc(O)cc2)c1-c1ccc(O)cc1` [PPT, 1,3,5-tris(4-hydroxyphenyl)-4-propyl-1H-pyrazole]: in series [8], the “hit identification in the primary screen with FtIspD” value was “identified as inhibitors of FtIspD”. Further, the remaining activity at 100 µM at E.coli IspD (EcIspD) (read-out: residual activity of EcIspD in the secondary screen) was found to be 55%. Further, the “antibacterial activity” value in series [1] is recorded as “significantly inhibit bacterial growth”.

As to `O=c1c(O[C@@H]2O[C@H](CO)[C@H](O)[C@H](O)[C@H]2O)c(-c2ccc(O)c(O)c2)oc2cc(O)cc(O)c12` [Quercetin 3-D-Galactoside], at Y. pestis IspC (YpIspC), the “% Residual Activity” value is reported as 76.779%.

Take `O=c1c(O[C@@H]2O[C@H](CO)[C@@H](O)[C@H](O)[C@H]2O)c(-c2ccc(O)c(O)c2)oc2cc(O)cc(O)c12` [Quercetin 3-β-D-glucoside]: on Y. pestis IspC (YpIspC), the “% Residual Activity” value is given as 76.25%.

One may read the Ki as a measure of affinity in units of concentration, obtained from inhibition or displacement. Usually inhibition stands for the relative decrease from the control value, in per cent. Broadly, the IC50 is the concentration that gives 50% inhibition. Usually Kd stands for the free concentration of one partner at which half of the binding sites on the other are occupied at equilibrium, for simple one-to-one binding. Consider `O=c1c(O)c(-c2ccc(O)c(O)c2)oc2cc(O)cc(O)c12` [Quercetin], for which, in [4], the “forming aggregates in solution” value is “forming aggregates in solution”. In addition, the EC50 in series [5] (setting [11]) is < 50 µM; in series [5] (read-out: EC50, growth inhibition) it was 29 µM; in series [1] (Francisella tularensis), < 50 µM; in series [1], 36 µM. The Ki in the series with CYP34A was 15.4 µM. Moreover, the remaining activity at 100 µM at Y. pestis IspC (YpIspC) stood at 4.83%. The inhibition at 100 µM on Y. pestis IspC (YpIspC) (read-out: inhibition of the catalytic activity of YpIspC) is > 95%. Further, the “FtIspD activity, % of the uninhibited control” value in [8] was 4%. In series [1], the residual growth entry is “less than 25%”. The IC50 in the series on JNK was 1 µM. For the same compound, the Kd on PI3K was 0.28 µM.

Consider `C[C@@H]1O[C@@H](Oc2c(-c3ccc(O)c(O)c3)oc3cc(O)cc(O)c3c2=O)[C@H](O)[C@H](O)[C@H]1O` [Quercitrin], for which the remaining activity at 100 µM on Y. pestis IspC (YpIspC) was 78.2%.

For `CC(=O)c1c(O)c(C)c(O)c(Cc2c(O)c3c(c(C(=O)C=Cc4ccccc4)c2O)OC(C)(C)C=C3)c1O` [Rottlerin, 3′-[(8-Cinnamoyl-5,7-dihydroxy-2,2-dimethyl-2H-1-benzopyran-6-yl)methyl]-2′,4′,6′-trihydroxy-5′-methylacetophenone], the “forming aggregates in solution” value in series [4] is “forming aggregates in solution”. Further, the “residual FtIspD activity in the primary screen” value in [8] is reported as 52%. Further, the “antibacterial activity” value in [1] is “significantly inhibit bacterial growth”.

As for `C[n+]1cc2c3c(ccc2c2ccc4cc5c(cc4c21)OCO5)OCO3` [Sanguinarine chloride, 13-Methyl-[1, 3]benzodioxolo[5,6-c]-1,3-dioxolo[4,5-i] phenanthridinium chloride], on YpIspC [9], the “aggregating / non-aggregating inhibitor” value is on record as “aggregating inhibitor” and the “dependence of IC50 on enzyme concentration” value is listed as “decreases with a decrease in YpIspC concentration”. In series [1], the “antibacterial activity” value was “significantly inhibit bacterial growth”.

With `Cc1ccc(C(=O)Nc2ccc(S(=O)(=O)O)c3cc(S(=O)(=O)O)cc(S(=O)(=O)O)c23)cc1NC(=O)c1cccc(NC(=O)Nc2cccc(C(=O)Nc3cc(C(=O)Nc4ccc(S(=O)(=O)O)c5cc(S(=O)(=O)O)cc(S(=O)(=O)O)c45)ccc3C)c2)c1` [Suramin Hexasodium], the “attenuation of inhibition in the presence of detergent” value on YpIspC [10] is recorded as “did not attenuate inhibition”. The “aggregating / non-aggregating inhibitor” value on YpIspC [9] was “non-aggregating”. Moreover, in series [1], the “antibacterial activity” value is “failed to show significant antimicrobial activity”.

With `C[C@]12C=CC(=O)C=C1CC[C@@H]1C2=CC[C@]2(C)[C@@H](C(=O)CN3CCN(c4cc(N5CCCC5)nc(N5CCCC5)n4)CC3)CC[C@@H]12.O=C(O)/C=C\C(=O)O` [U-74389G maleate], the “antibacterial activity” value in [1] is on record as “failed to show significant antimicrobial activity”.

`COc1ccc2c(c[n+](C)c3c4cc5c(cc4ccc23)OCO5)c1OC.[Cl-]` [chelerythrine chloride, 1,2-Dimethoxy-N-methyl(1,3) benzodioxolo(5,6-c)phenanthridinium chloride]: in [5] (setting [11]), the EC50 was > 100 µM. The “hit identification in the primary screen with YpIspC” value on Y. pestis IspC (YpIspC) is “identified as inhibitors of IspC”. For the same compound, in series [1], the “antibacterial activity” value is reported as “significantly inhibit bacterial growth”.
